Measured values taken from US11254663B2 (BRISTOL-MYERS SQUIBB COMPANY, priority 2019, dated 2022).

biological target: FXR (Homo sapiens (Human), UniProt Q96RI1); experiment: transient human FXR/Gal4-luciferase reporter assay; assay type: cell-based; details: not given
Method in brief: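 Compound exposure ran overnight at 37 °C and activity was measured as luminescence with Steady-Glo reagent. The cells were a HEK293 line stably expressing firefly luciferase under five Gal4 response elements. They were transiently transfected, one night beforehand, with a plasmid encoding Gal4 DNA-binding domain fused to the human FXR ligand-binding domain.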

Chain of FXR (Q96RI1 262-486): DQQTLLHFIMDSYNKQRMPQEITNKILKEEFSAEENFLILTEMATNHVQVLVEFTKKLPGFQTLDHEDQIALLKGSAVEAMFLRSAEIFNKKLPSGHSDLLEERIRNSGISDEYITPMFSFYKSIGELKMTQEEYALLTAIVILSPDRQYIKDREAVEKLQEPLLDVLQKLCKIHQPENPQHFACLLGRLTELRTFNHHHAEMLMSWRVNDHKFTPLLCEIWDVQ

Structure (SMILES) | EC50 [nM]
CC1(O)CC(C(=O)N(CC23CCC(c4noc(C(C)(C)C)n4)(CC2)CC3)c2cccc(-c3ccc(OC(F)F)cc3)c2)C1 [Example 517, (1S,3S)—N-((4-(5-(tert-butyl)-1,2,4-oxadiazol-3-yl)bicyclo[2.2.2]octan-1-yl)methyl)-N-(4′-(difluoromethoxy)-[1,1′-biphenyl]-3-yl)-3-hydroxy-3-methylcyclobutane-1-carboxamide] | 255
CCOc1ncc(-c2cccc(N(CC34CCC(c5noc(C6(C)COC6)n5)(CC3)CC4)C(=O)[C@H]3C[C@@](C)(O)C3)c2)cn1 [Example 519, (1S,3S)—N-(3-(2-ethoxypyrimidin-5-yl)phenyl)-3-hydroxy-3-methyl-N-((4-(5-(3-methyloxetan-3-yl)-1,2,4-oxadiazol-3-yl)bicyclo[2.2.2]octan-1-yl)methyl)cyclobutane-1-carboxamide] | 504
CCOc1ncc(-c2cccc(N(CC34CCC(c5noc(C6(C)COC6)n5)(CC3)CC4)C(=O)[C@H]3C[C@](O)(C(F)(F)F)C3)c2)cn1 [Example 520, (1S,3S)—N-(3-(2-ethoxypyrimidin-5-yl)phenyl)-3-hydroxy-N-((4-(5-(3-methyloxetan-3-yl)-1,2,4-oxadiazol-3-yl)bicyclo[2.2.2]octan-1-yl)methyl)-3-(trifluoromethyl)cyclobutane-1-carboxamide] | 449
O=C(N(CC12CCC(c3noc(C4(C(F)(F)F)CC4)n3)(CC1)CC2)c1cccc(-c2ccc(OC(F)F)cc2)c1)C12CC(F)(C1)C2 [Example 522, N-(4′-(difluoromethoxy)-[1,1′-biphenyl]-3-yl)-3-fluoro-N-((4-(5-(1-(trifluoromethyl)cyclopropyl)-1,2,4-oxadiazol-3-yl)bicyclo[2.2.2]octan-1-yl)methyl)bicyclo[1.1.1]pentane-1-carboxamide] | 69
CS(=O)(=O)Nc1ccc(-c2cccc(N(CC34CCC(c5noc(C6(C(F)(F)F)CC6)n5)(CC3)CC4)C(=O)C34CC(F)(C3)C4)c2)cc1 [Example 523, 3-fluoro-N-(4′-(methylsulfonamido)-[1,1′-biphenyl]-3-yl)-N-((4-(5-(1-(trifluoromethyl)cyclopropyl)-1,2,4-oxadiazol-3-yl)bicyclo[2.2.2]octan-1-yl)methyl)bicyclo[1.1.1]pentane-1-carboxamide] | 189
Cc1nc2ccc(-c3cccc(N(CC45CCC(c6noc(C7(C(F)(F)F)CC7)n6)(CC4)CC5)C(=O)C45CC(F)(C4)C5)c3)cc2s1 [Example 524, 3-fluoro-N-(3-(2-methylbenzo[d]thiazol-6-yl)phenyl)-N-((4-(5-(1-(trifluoromethyl)cyclopropyl)-1,2,4-oxadiazol-3-yl)bicyclo[2.2.2]octan-1-yl)methyl)bicyclo[1.1.1]pentane-1-carboxamide] | 119
CCOc1ncc(-c2cccc(N(CC34CCC(c5noc(C6(C(F)(F)F)CC6)n5)(CC3)CC4)C(=O)C34CC(F)(C3)C4)c2)cn1 [Example 525, N-(3-(2-ethoxypyrimidin-5-yl)phenyl)-3-fluoro-N-((4-(5-(1-(trifluoromethyl)cyclopropyl)-1,2,4-oxadiazol-3-yl)bicyclo[2.2.2]octan-1-yl)methyl)bicyclo[1.1.1]pentane-1-carboxamide] | 142
O=C(N(CC12CCC(c3noc(C4(C(F)(F)F)CC4)n3)(CC1)CC2)c1cccc(-c2cnc3nc(C4CC4)sc3c2)c1)C12CC(F)(C1)C2 [Example 526, N-(3-(2-cyclopropylthiazolo[4,5-b]pyridin-6-yl)phenyl)-3-fluoro-N-((4-(5-(1-(trifluoromethyl)cyclopropyl)-1,2,4-oxadiazol-3-yl)bicyclo[2.2.2]octan-1-yl)methyl) bicyclo[1.1.1]pentane-1-carboxamide] | 497
CC(F)(F)c1nc(C23CCC(CN(C(=O)C45CC(F)(C4)C5)c4cccc(-c5ccc(OC(F)F)cc5)c4)(CC2)CC3)no1 [Example 528, N-((4-(5-(1,1-difluoroethyl)-1,2,4-oxadiazol-3-yl)bicyclo[2.2.2]octan-1-yl)methyl)-N-(4′-(difluoromethoxy)-[1,1′-biphenyl]-3-yl)-3-fluorobicyclo[1.1.1]pentane-1-carboxamide] | 73
CCOc1ncc(-c2cccc(N(CC34CCC(c5noc(C(C)(F)F)n5)(CC3)CC4)C(=O)C34CC(F)(C3)C4)c2)cn1 [Example 529, N-((4-(5-(1,1-difluoroethyl)-1,2,4-oxadiazol-3-yl)bicyclo[2.2.2]octan-1-yl)methyl)-N-(3-(2-ethoxypyrimidin-5-yl)phenyl)-3-fluorobicyclo[1.1.1]pentane-1-carboxamide] | 106
CC(F)(F)c1nc(C23CCC(CN(C(=O)C45CC(F)(C4)C5)c4cccc(-c5cnc6nc(C7CC7)sc6c5)c4)(CC2)CC3)no1 [Example 530, N-(3-(2-cyclopropylthiazolo[4,5-b]pyridin-6-yl)phenyl)-N-((4-(5-(1,1-difluoroethyl)-1,2,4-oxadiazol-3-yl)bicyclo[2.2.2]octan-1-yl)methyl)-3-fluorobicyclo[1.1.1]pentane-1-carboxamide] | 145
CCOc1ccc(-c2ccnc(N(CC34CCC(c5noc(C(C)(C)C)n5)(CC3)CC4)C(=O)C34CC(F)(C3)C4)c2)cc1 [Example 532, N-((4-(5-(tert-butyl)-1,2,4-oxadiazol-3-yl)bicyclo[2.2.2]octan-1-yl)methyl)-N-(4-(4-ethoxyphenyl)pyridin-2-yl)-3-fluorobicyclo[1.1.1]pentane-1-carboxamide] | 86
CC(C)(C)c1nc(C23CCC(CN(C(=O)C45CC(F)(C4)C5)c4cc(-c5ccc(OC(F)F)cc5)ccn4)(CC2)CC3)no1 [Example 533, N-((4-(5-(tert-butyl)-1,2,4-oxadiazol-3-yl)bicyclo[2.2.2]octan-1-yl)methyl)-N-(4-(4-(difluoromethoxy)phenyl)pyridin-2-yl)-3-fluorobicyclo[1.1.1]pentane-1-carboxamide] | 26
CC(C)(C)c1nc(C23CCC(CN(C(=O)C45CC(F)(C4)C5)c4cc(-c5ccc(NS(C)(=O)=O)cc5)ccn4)(CC2)CC3)no1 [Example 534, N-((4-(5-(tert-butyl)-1,2,4-oxadiazol-3-yl)bicyclo[2.2.2]octan-1-yl)methyl)-3-fluoro-N-(4-(4-(methylsulfonamido)phenyl)pyridin-2-yl)bicyclo[1.1.1]pentane-1-carboxamide] | 77
CC(C)(C)c1nc(C23CCC(CN(C(=O)C45CC(F)(C4)C5)c4cc(-c5cnc6nc(C7CC7)sc6c5)ccn4)(CC2)CC3)no1 [Example 535, N-((4-(5-(tert-butyl)-1,2,4-oxadiazol-3-yl)bicyclo[2.2.2]octan-1-yl)methyl)-N-(4-(2-cyclopropylthiazolo[4,5-b]pyridin-6-yl)pyridin-2-yl)-3-fluorobicyclo[1.1.1]pentane-1-carboxamide] | 202
CCOc1ccc(-c2ccnc(N(CC34CCC(c5noc(C(C)(C)C)n5)(CC3)CC4)C(=O)C34CC(F)(C3)C4)c2)cn1 [Example 536, N-((4-(5-(tert-butyl)-1,2,4-oxadiazol-3-yl)bicyclo[2.2.2]octan-1-yl)methyl)-N-(6-ethoxy-[3,4′-bipyridin]-2′-yl)-3-fluorobicyclo[1.1.1]pentane-1-carboxamide] | 29
Cc1nc2ccc(-c3ccnc(N(CC45CCC(c6noc(C(C)(C)C)n6)(CC4)CC5)C(=O)C45CC(F)(C4)C5)c3)cc2s1 [Example 537, N-((4-(5-(tert-butyl)-1,2,4-oxadiazol-3-yl)bicyclo[2.2.2]octan-1-yl)methyl)-3-fluoro-N-(4-(2-methylbenzo[d]thiazol-6-yl)pyridin-2-yl)bicyclo[1.1.1]pentane-1-carboxamide] | 67
COc1ncc(-c2ccnc(N(CC34CCC(c5noc(C(C)(C)C)n5)(CC3)CC4)C(=O)C34CC(F)(C3)C4)c2)cn1 [Example 538, N-((4-(5-(tert-butyl)-1,2,4-oxadiazol-3-yl)bicyclo[2.2.2]octan-1-yl)methyl)-3-fluoro-N-(4-(2-methoxypyrimidin-5-yl)pyridin-2-yl)bicyclo[1.1.1]pentane-1-carboxamide] | 121
CC(C)(C)c1nc(C23CCC(CN(C(=O)C45CC(F)(C4)C5)c4cc(-c5cnc(C6CC6)nc5)ccn4)(CC2)CC3)no1 [Example 539, N-((4-(5-(tert-butyl)-1,2,4-oxadiazol-3-yl)bicyclo[2.2.2]octan-1-yl)methyl)-N-(4-(2-cyclopropylpyrimidin-5-yl)pyridin-2-yl)-3-fluorobicyclo[1.1.1]pentane-1-carboxamide] | 119

same assay, conditions: Gal4-hFXR fusion construct, HEK293 reporter cells; response relative to 8 μM GW-4064

EC50 [nM] | Structure (SMILES)
1290 | CCOc1ncc(-c2cccc(N(CC34CCC(c5noc(C6(C)COC6)n5)(CC3)CC4)C(=O)[C@H]3C[C@@H](OC)C3)c2)cn1 [Example 518, (cis)-N-(3-(2-ethoxypyrimidin-5-yl)phenyl)-3-methoxy-N-((4-(5-(3-methyloxetan-3-yl)-1,2,4-oxadiazol-3-yl)bicyclo[2.2.2]octan-1-yl)methyl)cyclobutane-1-carboxamide]
112 | CCOc1ccc(-c2cccc(N(CC34CCC(c5noc(C6(C(F)(F)F)CC6)n5)(CC3)CC4)C(=O)C34CC(F)(C3)C4)c2)cc1 [Example 521, N-(4′-ethoxy-[1,1′-biphenyl]-3-yl)-3-fluoro-N-((4-(5-(1-(trifluoromethyl)cyclopropyl)-1,2,4-oxadiazol-3-yl)bicyclo[2.2.2]octan-1-yl)methyl)bicyclo[1.1.1]pentane-1-carboxamide]
103 | CCOc1ccc(-c2cccc(N(CC34CCC(c5noc(C(C)(F)F)n5)(CC3)CC4)C(=O)C34CC(F)(C3)C4)c2)cc1 [Example 527, N-((4-(5-(1,1-difluoroethyl)-1,2,4-oxadiazol-3-yl)bicyclo[2.2.2]octan-1-yl)methyl)-N-(4′-ethoxy-[1,1′-biphenyl]-3-yl)-3-fluorobicyclo[1.1.1]pentane-1-carboxamide]
159 | CCOc1ncc(-c2ccnc(N(CC34CCC(c5noc(C(C)(C)C)n5)(CC3)CC4)C(=O)C34CC(F)(C3)C4)c2)cn1 [Example 531, N-((4-(5-(tert-butyl)-1,2,4-oxadiazol-3-yl)bicyclo[2.2.2]octan-1-yl)methyl)-N-(4-(2-ethoxypyrimidin-5-yl)pyridin-2-yl)-3-fluorobicyclo[1.1.1]pentane-1-carboxamide]
